Where “and” joins values, the source holds several entries; their conditions need not be identical. Identical values can stand only once.

Series [1] in a line: Percent of compound in healthy individuals (Group D). It counts as ADME. As to conditions: human.
The subject of series [2] is Homo sapiens. Kind of series: Ratio of percent compound before and after dosing in cirrhotic patients of spontaneous ascitic fluid infection. It counts as ADME, organism-based. Conditions: in vivo.
Series [3] is filed under the species Homo sapiens. Kind of series: Ratio of lactulose and mannitol in cirrhotic patients of sterile ascitic fluid (Group C). It counts as ADME, organism-based. As to conditions: in vivo.
Series [4] is filed under the species Homo sapiens. As to the kind of experiment: Ratio of lactulose and mannitol in healthy individuals (Group D). The format is ADME, organism-based. Conditions: in vivo.
The nature of series [5]: Percent of compound in cirrhotic patients of spontaneous ascitic fluid infection after dosing with normal antibiotics. It counts as ADME. As to conditions: human, in vivo.
Series [6] is described as follows: Percent of compound in cirrhotic patients of spontaneous ascitic fluid infection (Group A and B). The format is ADME. Conditions: human.
The nature of series [7]: Percent of compound in cirrhotic patients of spontaneous ascitic fluid infection before dosing with normal antibiotics and lactose. It counts as ADME. As to conditions: human, in vivo.
A short description of series [8]: Percent of compound in cirrhotic patients of spontaneous ascitic fluid infection before dosing with normal antibiotics. It counts as ADME. Conditions: human, in vivo.
Series [9] deals with Homo sapiens. Kind of series: Ratio of percent compound after dosing in cirrhotic patients of spontaneous ascitic fluid infection. It counts as ADME, organism-based. As to conditions: in vivo.
A short description of series [10]: Percent recovery of 500 ug/mL compound after administration in cirrhotic patients. The format is ADME. As to conditions: human, in vivo.
Series [11] is described as follows: Percent of compound in cirrhotic patients of spontaneous ascitic fluid infection after dosing with normal antibiotics and lactose. The format is ADME. As to conditions: human, in vivo.
In series [12] the test system is Homo sapiens. Kind of series: Ratio of percent compound before dosing in cirrhotic patients of spontaneous ascitic fluid infection. Conditions: in vivo. It counts as ADME, organism-based.
The nature of series [13]: Percent of compound in cirrhotic patients of sterile ascitic fluid (Group C). As to conditions: human. The format is ADME.
The species entered for series [14] is Homo sapiens. As to the kind of experiment: Ratio of lactulose and mannitol in cirrhotic patients of spontaneous ascitic fluid infection (Group A and B). It counts as ADME, organism-based. Conditions: in vivo.
Series [15] can be described thus: Percent recovery of 100 ug/mL compound after administration in cirrhotic patients. The format is ADME. Conditions: human, in vivo.
Series [16] is described as follows: Percent recovery of 10 ug/mL compound after administration in cirrhotic patients. It counts as ADME. As to conditions: human, in vivo.

Turning to `OC[C@@H](O)[C@@H](O)[C@H](O)[C@H](O)CO` [MANNITOL], the Activity was determined as 0.0838% in series [1]; 0.0782% in series [5]; 0.0741% in [6]; 0.0733% in series [7]; 0.0735% in series [8]; 0.0732% in series [11]. In addition, in [13], the Activity is recorded as 0.0691%. For the same molecule, the Ratio in the series with Homo sapiens [2] was 0.0985; in the series listed under Homo sapiens [3], 0.0715; in the series filed under Homo sapiens [4] it was 0.0209; in the series with Homo sapiens [9], 0.0814 and 0.0572; with Homo sapiens [12], 0.1009; in the series filed under Homo sapiens [14], 0.1003. For the same molecule, the Recovery is listed as 97.1% in series [10], 95.2% in series [15] and 93.3% in series [16].

Regarding `OC[C@H]1O[C@@H](O[C@@H]2[C@@H](CO)O[C@](O)(CO)[C@H]2O)[C@H](O)[C@@H](O)[C@H]1O` [LACTULOSE], the Activity in [1] turned out to be 0.00177%; in series [5], 0.006%; in series [6], 0.00719%; in series [7], 0.0071%; in series [8] it was 0.007%; in series [11], 0.0044%. Further, in series [13], the Activity came to 0.00476%. For the same molecule, the Ratio in the series with Homo sapiens [2] is 0.1009; in the series listed under Homo sapiens [3], 0.0715; in the series filed under Homo sapiens [4] it was 0.0209; with Homo sapiens [9] it was 0.0814 and 0.0572; in the series on Homo sapiens [12] it was 0.1009; in the series listed under Homo sapiens [14], 0.1003. Further, the Recovery in [10] is 97%; in [15], 93.7%; in series [16], 93.1%.

For the origin of these results see ChEMBL document CHEMBL1148239, “Studies on intestinal permeability of cirrhotic patients by analysis lactulose and mannitol in urine with HPLC/RID/MS” (Bioorg Med Chem Lett, 2004).
